Test: Ready-to-use formulation stability at 2-8° C., 5 mg/mL (R,R)-pyrodach-2 in 10 mM Potassium Phosphate Buffer at pH 7.4, 10 mL vials
Type: physicochemical
Experimental: A scalable and commercially viable process for the manufacture of a ready-to-use formulation of (R,R)-pyrodach-2 in 10 mM buffer adjusted to a pH of 7.0-7.5 comprises the steps of: a) preparing a 10 mM aqueous solution of buffer; b) adding sufficient hydroxide base to effect neutralization of the added (R,R)-pyrodach-2 to reach a pH of about 7; c) adding (R,R)-pyrodach-2 and allowing it to dissolve; d) if necessary adding additional hydroxide to adjust the pH into a range of about 7.0-7.5; and e) filtering the solution under sterile conditions, filling the solution into glass vials, and covering it with a stopper and/or a cap. Stability data on two large batches of 5 mg/mL (R,R)-pyrodach-2 in 10 mM potassium phosphate buffer were generated. One such batch at pH=7.2 was evaluated at both 25° C./60% RH and refrigerated (2-8° C.) conditions, with data summarized in Table 4 and Table 5, respectively. […] Similar observations have been made for the ready-to-use liquid formulation at pH7.4, as illustrated in Table 6 and Table 7.
• Transfer 4564.6 mg±0.5 mg of potassium phosphate dibasic, trihydrate to a 2-L volumetric flask. • Fill flask to approximately 75% volume with water, swirl as needed to dissolve all solids. • Volumetrically transfer 32.0 mL of 1N KOH to flask. • Dilute flask to volume with water and mix well. • Record pH of final solution. This is the diluent. • Transfer 7653.1 mg±0.5 mg of (R,R)-pyrodach-2 to a compounding vessel. • Transfer 1500 mL of the diluent to the vessel and stir to dissolve solids. • Record pH of final solution. • Pass entire solution through a 0.22 μm sterile filter membrane into a sterile collection vessel. • Calculate (R,R)-pyrodach-2 solution concentration
To a […] glass beaker equipped with mechanical mixer was add 24645.5 g of sterile water for injection. With agitation 47.03 gm of dibasic potassium phosphate USP was added and the solids allowed to dissolve. To the stirred solution was added 253.8 gm of 1.00 N potassium hydroxide. Sterile water for injection USP (900.0 gm) was used as a rinse to facilitate both additions. With vigorous agitation, (R,R)-pyrodach-2 (201.87 gm) was slowly added and agitation continued until all of the solids dissolved. Sterile water for injection USP (900.0 gm) was used as a rinse to facilitate the addition. The pH was determined to be 6.7. A total of 85 mL of 1.00 N potassium hydroxide was added in 5.0 mL aliquots to adjust the pH to 7.3. The solution was sterile filtered through 0.22μ Millipore Millipack filter and aseptically filled, 10 ml top a vial in 10 mL in 10 cc Wheaton clear molded vails, stoppered with a 20 mm stopper and crimp seal capped.

SMILES: O=P1(O)OP(=O)(O)[O][Pt]2([NH][C@@H]3CCCC[C@H]3[NH]2)[O]1 (stereo partly drawn) [(R,R)-pyrodach-2, (R,R)-trans-1,2-cyclohexanediamine-(dihydrogenpyrophosphato)platinum(II)]
- (DACH) Pt-diaquo (~RRT 0.3) (1 Month): 0.15%
- (DACH) Pt-monoaquo (~RRT 0.7) (1 Month): 1.04%
- Assay (Potency) (1 Month): 98.7%
- PT-112 Dimer (~RRT 4.0) (1 Month): 0.33%
- RRT 0.50 (1 Month): 0.06%
- RRT 0.56 (1 Month): 0.10%
- RRT 0.68 (1 Month): 0.19%
- RRT 0.86 (1 Month): 0.05%
- RRT 3.1-3.2 (1 Month): 0.13%
- Total Related Substances (1 Month): 2%
- pH (1 Month): 7.4
- (DACH) Pt-diaquo (~RRT 0.3) (3 Month): 0.14%
- (DACH) Pt-monoaquo (~RRT 0.7) (3 Month): 0.92%
- Assay (Potency) (3 Month): 99.7%
- PT-112 Dimer (~RRT 4.0) (3 Month): 0.37%
- RRT 0.50 (3 Month): 0.06%
- RRT 0.56 (3 Month): 0.12%
- RRT 0.68 (3 Month): 0.11%
- RRT 3.1-3.2 (3 Month): 0.25%
- Total Related Substances (3 Month): 2%
- pH (3 Month): 7.4
- (DACH) Pt-diaquo (~RRT 0.3) (6 Month): 0.17%
- (DACH) Pt-monoaquo (~RRT 0.7) (6 Month): 0.28%
- Assay (Potency) (6 Month): 98.2%
- PT-112 Dimer (~RRT 4.0) (6 Month): 0.36%
- RRT 0.46 (6 Month): 0.06%
- RRT 0.50 (6 Month): 0.18%
- RRT 0.56 (6 Month): 0.06%
- RRT 0.68 (6 Month): 0.16%
- RRT 0.86 (6 Month): 0.05%
- RRT 3.1-3.2 (6 Month): 0.38%
- Total Related Substances (6 Month): 2%
- pH (6 Month): 7.4
- Particulate Matter (Light Obscuration) (6 Month, first value): 83 particles particles per container
- Particulate Matter (Light Obscuration) (6 Month, second value): 1 particles particles per container
- (DACH) Pt-diaquo (~RRT 0.3) (9 Month): 0.14%
- (DACH) Pt-monoaquo (~RRT 0.7) (9 Month): 0.81%
- Assay (Potency) (9 Month): 100.2%
- PT-112 Dimer (~RRT 4.0) (9 Month): 0.33%
- RRT 0.46 (9 Month): 0.05%
- RRT 0.50 (9 Month): 0.18%
- RRT 0.56 (9 Month): 0.07%
- RRT 0.68 (9 Month): 0.08%
- RRT 0.86 (9 Month): 0.05%
- RRT 3.1-3.2 (9 Month): 0.39%
- RRT 3.58 (9 Month): 0.07%
- Total Related Substances (9 Month): 2%
- pH (9 Month): 7.4
- (DACH) Pt-diaquo (~RRT 0.3) (12 Month): 0.12%
- (DACH) Pt-monoaquo (~RRT 0.7) (12 Month): 0.96%
- Assay (Potency) (12 Month): 98.7%
- PT-112 Dimer (~RRT 4.0) (12 Month): 0.34%
- RRT 0.50 (12 Month): 0.15%
- RRT 0.56 (12 Month): 0.16%
- RRT 0.68 (12 Month): 0.11%
- RRT 0.86 (12 Month): 0.05%
- RRT 3.1-3.2 (12 Month): 0.48%
- Total Related Substances (12 Month): 2%
- pH (12 Month): 7.4
- Particulate Matter (Light Obscuration) (12 Month, first value): 124 particles per container
- Particulate Matter (Light Obscuration) (12 Month, second value): 6 particles particles per container
- (DACH) Pt-diaquo (~RRT 0.3) (15 Month): 0.14%
- (DACH) Pt-monoaquo (~RRT 0.7) (15 Month): 0.94%
- Assay (Potency) (15 Month): 98.0%
- PT-112 Dimer (~RRT 4.0) (15 Month): 0.34%
- RRT 0.50 (15 Month): 0.16%
- RRT 0.56 (15 Month): 0.17%
- RRT 0.68 (15 Month): 0.12%
- RRT 0.86 (15 Month): 0.06%
- RRT 3.1-3.2 (15 Month): 0.59%
- RRT 3.58 (15 Month): 0.07%
- Total Related Substances (15 Month): 3%
- pH (15 Month): 7.4
- (DACH) Pt-diaquo (~RRT 0.3) (18 Month): 0.13%
- (DACH) Pt-monoaquo (~RRT 0.7) (18 Month): 0.76%
- Assay (Potency) (18 Month): 97.5%
- PT-112 Dimer (~RRT 4.0) (18 Month): 0.33%
- RRT 0.46 (18 Month): 0.09%
- RRT 0.50 (18 Month): 0.26%
- RRT 0.56 (18 Month): 0.06%
- RRT 0.68 (18 Month): 0.08%
- RRT 0.86 (18 Month): 0.05%
- RRT 3.1-3.2 (18 Month): 0.58%
- RRT 3.58 (18 Month): 0.10%
- Total Related Substances (18 Month): 2%
- pH (18 Month): 7.4
- (DACH) Pt-diaquo (~RRT 0.3) (21 Month): 0.12%
- (DACH) Pt-monoaquo (~RRT 0.7) (21 Month): 1.07%
- Assay (Potency) (21 Month): 97.4%
- PT-112 Dimer (~RRT 4.0) (21 Month): 0.35%
- RRT 0.46 (21 Month): 0.07%
- RRT 0.50 (21 Month): 0.23%
- RRT 0.56 (21 Month): 0.12%
- RRT 0.68 (21 Month): 0.14%
- RRT 0.86 (21 Month): 0.05%
- RRT 3.1-3.2 (21 Month): 0.67%
- RRT 3.58 (21 Month): 0.10%
- Total Related Substances (21 Month): 3%
- pH (21 Month): 7.4
- (DACH) Pt-diaquo (~RRT 0.3) (24 Month): 0.11%
- (DACH) Pt-monoaquo (~RRT 0.7) (24 Month): 0.93%
- Assay (Potency) (24 Month): 96.5%
- PT-112 Dimer (~RRT 4.0) (24 Month): 0.33%
- RRT 0.46 (24 Month): 0.08%
- RRT 0.50 (24 Month): 0.25%
- RRT 0.56 (24 Month): 0.12%
- RRT 0.68 (24 Month): 0.11%
- RRT 0.86 (24 Month): 0.06%
- RRT 3.1-3.2 (24 Month): 0.65%
- RRT 3.58 (24 Month): 0.14%
- Total Related Substances (24 Month): 3%
- pH (24 Month): 7.4
- (DACH) Pt-diaquo (~RRT 0.3) (Initial): 0.16%
- (DACH) Pt-monoaquo (~RRT 0.7) (Initial): 0.84%
- Assay (Potency) (Initial): 98.1%
- PT-112 Dimer (~RRT 4.0) (Initial): 0.34%
- RRT 0.50 (Initial): 0.06%
- RRT 0.56 (Initial): 0.08%
- RRT 0.68 (Initial): 0.09%
- RRT 3.1-3.2 (Initial): 0.11%
- Total Related Substances (Initial): 2%
- pH (Initial): 7.4
- Particulate Matter (Light Obscuration) (Initial, first value): 30 particles particles per container
- Particulate Matter (Light Obscuration) (Initial, second value): 11 particles particles per container

Source: US11154529B2, “Phosphaplatin liquid formulations” (Phosplatin Therapeutics Inc., priority 2016, dated 2021)
